Measurements published in patent US20100324123A1, “GLMS RIBOSWITCHES, STRUCTURE-BASED COMPOUND DESIGN WITH GLMS RIBOSWITCHES, AND METHODS AND COMPOSITIONS FOR USE OF AND WITH GLMS RIBOSWITCHES” (Yale University, priority 2006, published 2010).
Entries after “also recorded” stand apart in the source; their conditions may differ. Values belong to the compound of their own block, whether it stands above or below them.

Assays:
glmS ribozyme [1] = test: activity by electrophoretic in-line probing (gel electrophoresis methods); assay type: binding
glmS ribozyme [2] = test: high-throughput fluorescence screen with bimolecular glmS ribozyme (fluorescein/cy3-labeled substrate); assay type: biochemical, S. aureus; details: for Fl21 h/Flg h: high-throughput fluorescence screen, fluorescence ratio
[3] = target: homologous ribozyme from Bacillus subtilis; details: Bacillus subtilis glmS ribozyme; read-out: apparent dissociation constant (KD); cited from earlier work
[4] = target: glmS ribozyme from B. cereus; details: read-out: apparent dissociation constant (KD); cited from earlier work
[5] = test system: glmS ribozyme from B. cereus; test: glmS ribozyme self-cleavage assay (5'-32P-labeled 200-nucleotide construct, PAGE); assay type: biochemical, Bacillus cereus; details: for ribozyme activation / self-cleavage (in words): FIG. 2b: 1 mM effector, 30 minutes, FIG. 2c: 100 μM, 50 mM HEPES pH 7.5; for ribozyme self-cleavage activity as fraction of the activity exhibited by GlcN6P: FIG. 2c, each at 100 μM
Procedure: Differences from GlcN6P can be seen by comparing the structures to GlcN6P. b) Yields of ribozyme cleavage assays using a 200-nucleotide glmS RNA construct incubated with GlcN6P (1) or with various compounds as indicated. 5′ ^32P-labeled precursor (Pre) RNAs were incubated for 30 minutes in the presence of 1 mM effector as noted for each lane. […] Rate constants for the remaining compounds are estimated to be less than 0.001 min^−1.
The molecular recognition characteristics of the glmS ribozyme was found by determining the effects of GlcN6P and various GlcN6P analogs on the self-cleavage activity of a 200-nucleotide glmS ribozyme construct from B. cereus (FIG. 1). KD values for each ligand were determined by plotting ribozyme rate constants versus ligand concentrations (Experimental Section). […] The amine group of the ligand is also known to be essential for ribozyme function (Winkler 2004; McCarthy 2005). […] Therefore, a series of analogs were tested (FIG. 2) to probe the importance of structural conformation of GlcN6P and of individual functional groups on the pyranose ring.
The glmS ribozyme from B. cereus (FIG. 1a) was generated by in vitro transcription as described previously, (Roth 2006) 5′-^32P-radiolabeled, (Lim 2006) and purified by PAGE. Rate constants were established using methods and reaction conditions similar to those described previously (Roth 2006) with the exception that reaction mixtures contained 50 mM HEPES buffer (pH 7.5 at 23° C.) in place of Tris-HCl buffer. Ligand concentrations and incubation times used are defined for each assay. Ribozyme activity was established by quantitating the amounts of cleaved and uncleaved RNAs using a Typhoon imager (Amersham Biosciences).

glmS ribozymes = details: cited from earlier work

Structure (SMILES): CC(=O)N[C@H]1C(O)O[C@H](COP(=O)(O)O)[C@@H](O)[C@@H]1O (stereo partly drawn) [AcNGln 6P, N-acetyl-D-glucosamine 6-phosphate]
Activity by electrophoretic in-line probing (glmS ribozyme [1]): Weakly
Fl21 h/Flg h (glmS ribozyme [2]): 2.28

Structure (SMILES): N[C@H]1C(O)O[C@H](COP(=O)(O)O)[C@@H](O)[C@@H]1O (stereo partly shown) [Compound 1, glucosamine-6-phosphate, reference compound]
Kd [3]: ~200 µM
Kd [4]: ~200 µM
Activity by electrophoretic in-line probing (glmS ribozyme [1]): Yes
Fl21 h/Flg h (glmS ribozyme [2]): 3.36
increase of fluorescence intensity of fluoroscein (glmS ribozyme [2]; ~160 μM glucosamine-6-phosphate, minimum of 10 hours incubation): ~4 fold

Structure (SMILES): N[C@@H](C=O)[C@@H](O)[C@@H](O)[C@H](O)COP(=O)(O)O [Compound 2, 2-amino-2-deoxy-D-galactose 6-phosphate]
ribozyme activation / self-cleavage (in words) [5]: does not induce activity
Fl21 h/Flg h (glmS ribozyme [2]): 1.69

Structure (SMILES): N[C@@H](CO)[C@@H](O)[C@H](O)[C@H](O)COP(=O)(O)O [Compound 3, 2-amino-2-deoxy-D-glucitol-6-phosphate]
Activity by electrophoretic in-line probing (glmS ribozyme [1]): No
ribozyme activation / self-cleavage (in words) [5]: no detectable activity
Fl21 h/Flg h (glmS ribozyme [2]): 0.80

Structure (SMILES): NC1C(O)O[C@H](COP(=O)(O)S)C(O)[C@@H]1O (stereo partly drawn) [Compound 4, 2-amino-2-deoxy-D-glucose 6-thiophosphate]
Activity by electrophoretic in-line probing (glmS ribozyme [1]): No
reduction of the rate constant of ribozyme cleavage compared to 1 [5]: approximately two orders of magnitude
Fl21 h/Flg h (glmS ribozyme [2]): 1.11

Structure (SMILES): CO[C@@H]1O[C@H](COP(=O)(O)O)[C@@H](O)[C@H](O)[C@H]1N [Compound 5, methyl 2-amino-2-deoxy-β-D-glucose 6-phosphate]
Activity by electrophoretic in-line probing (glmS ribozyme [1]): No
ribozyme activation / self-cleavage (in words) [5]: precludes analog binding
Fl21 h/Flg h (glmS ribozyme [2]): 1.02

Structure (SMILES): CO[C@H]1O[C@H](COP(=O)(O)O)[C@@H](O)[C@H](O)[C@H]1N [Compound 6, methyl 2-amino-2-deoxy-α-D-glucose 6-phosphate]
Activity by electrophoretic in-line probing (glmS ribozyme [1]): No
ribozyme activation / self-cleavage (in words) [5]: precludes analog binding
Fl21 h/Flg h (glmS ribozyme [2]): 1.07

Structure (SMILES): NC1O[C@H](COP(=O)(O)O)[C@@H](O)[C@H](O)[C@H]1O (stereo partly shown) [Compound 7, 1-amino-1-deoxyglucose 6-phosphate]
Activity by electrophoretic in-line probing (glmS ribozyme [1]): No
ribozyme activation / self-cleavage (in words) [5]: does not support ribozyme cleavage; also recorded: lowest amount of cleavage
Fl21 h/Flg h (glmS ribozyme [2]): 1.00

Structure (SMILES): N[C@H]1CO[C@H](COP(=O)(O)O)[C@@H](O)[C@@H]1O [Compound 8, 2-amino-1,5-anhydro-2-deoxyglucitol 6-phosphate]
melting point: 185 to 187 °C (dec.)
Activity by electrophoretic in-line probing (glmS ribozyme [1]): Yes
ribozyme self-cleavage activity as fraction of the activity exhibited by GlcN6P [5]: 1/70
Fl21 h/Flg h (glmS ribozyme [2]): 2.52

Structure (SMILES): CNC1C(O)O[C@H](COP(=O)(O)O)C(O)[C@@H]1O (stereo partly shown) [Compound 9, 2-methylamino-2-deoxyglucose 6-phosphate]
melting point: 185 to 187 °C (dec.)
Activity by electrophoretic in-line probing (glmS ribozyme [1]): Yes
ribozyme activation / self-cleavage (in words) [5]: only a modest reduction in efficiency compared to GlcN6P
Fl21 h/Flg h (glmS ribozyme [2]): 3.49

Structure (SMILES): N[C@H](C=O)[C@@H](O)[C@H](O)[C@H](O)COP(=O)(O)O [Compound 12, 2-amino-2-deoxy-D-mannose 6-phosphate]
Activity by electrophoretic in-line probing (glmS ribozyme [1]): Yes
ribozyme self-cleavage activity as fraction of the activity exhibited by GlcN6P [5]: 1/35
Fl21 h/Flg h (glmS ribozyme [2]): 2.89

Structure (SMILES): NC1C(O)O[C@H](COP(=O)(O)O)C(O)[C@H]1O (stereo partly shown) [Compound 13, 2-amino-2-deoxyallose 6-phosphate]
ribozyme activation / self-cleavage (in words) [5]: activity that is similar to GlcN6P

Structure (SMILES): N[C@@H]1[C@@H](O)[C@H](O)[C@@H](COP(=O)(O)O)O[C@@H]1O [Gln6P com, reference compound]
Activity by electrophoretic in-line probing (glmS ribozyme [1]): Yes
Fl21 h/Flg h (glmS ribozyme [2]): 2.24

Structure (SMILES): Cl.N[C@H]1C(O)O[C@H](CO)[C@@H](O)[C@@H]1O (stereo partly drawn) [Gln com, D-(+)-glucosamine hydrochloride, reference compound]
Activity by electrophoretic in-line probing (glmS ribozyme [1]): Yes
Fl21 h/Flg h (glmS ribozyme [2]): 1.87
GlcN6P bound by the ribozyme more tightly than glucosamine (glmS ribozymes): > 1000 fold
loss of ligand affinity (in words) (glmS ribozymes; removal of the phosphate group): an even greater loss of ligand affinity

melting point: 185 to 187 °C (dec.)
Structure (SMILES): C[N+](C)(C)C1C(O)O[C@H](COP(=O)(O)O)C(O)[C@@H]1O (stereo partly shown) [Me3N-Gln 6P, 2-(trimethylammonio)-2-deoxyglucose 6-phosphate]

Structure (SMILES): C[N+](C)(C)[C@@H](C=O)[C@@H](O)[C@H](O)[C@H](O)CO [Me3N-Gln, 2-deoxy-2-(trimethylammonio)-D-glucose]
Activity by electrophoretic in-line probing (glmS ribozyme [1]): No
Fl21 h/Flg h (glmS ribozyme [2]): 1.17

Structure (SMILES): NCCO [ethanolamine]
ribozyme activation (in words) (glmS ribozymes): orders of magnitude less effective than GlcN6P

Structure (SMILES): N[C@H]1C(O)O[C@H](COS(=O)(=O)O)[C@@H](O)[C@@H]1O (stereo partly shown) [glucosamine-6-sulphate]
concentration needed to induce ribozyme activation to the same extent as GlcN6P, relative to GlcN6P (glmS ribozymes): ~100 fold

Structure (SMILES): O=C[C@H](O)[C@@H](O)[C@H](O)[C@H](O)COP(=O)(O)O [glucose-6-phosphate]
ribozyme activation (in words) (glmS ribozymes): completely fails to trigger ribozyme action

Structure (SMILES): NC(CO)CO [serinol]
ribozyme activation (in words) (glmS ribozymes): orders of magnitude less effective than GlcN6P
